The conditions of data set [1]: olive oil-loaded mice, 6 hours; cited from earlier work.
The test system of data set [2] is Mealworm (Tenebrio molitor). Conditions: cited from earlier work.
Data set [3] is described as follows: Clinical blood chemistry of the rat study. It is filed as in vivo. Conditions: rats under high fat (HF) diet. The method, then: The following parameters are involved in energy metabolism and thereby related to the metabolic syndrome. They are determined from blood samples taken in week 1; 4; and 8 of the rat study: Total cholesterol levels; HDL, LDL, TG (triglycerides), and glucose. Furthermore, the activity of liver enzymes such as ALT (alanin-aminotransferase), AST (aspartat-aminotransferase), and AP (alkaline phosphatase), as well as the concentration of Bilirubin, Albumin, Creatin Kinase, and electrolytes (Na+; K+; Ca++; Cl−) are determined as safety markers to exclude any toxic effects such as e.g. liver damage.
Blood samples are taken from the sublingual vein and collected in Li-Heparin coated vials. The blood samples are stored on ice for a short period of time before it is centrifuged for 15 minutes at 8° C. and 3500 rpm. The supernatant plasma is transferred in a reaction tube and stored at −80° C. until clinical chemistry measurements are performed. All measurements are conducted using an Olympus AU 400 at the gene centre of the LMU Munich, working group of Prof. Wolf. Statistical calculations are performed with Statistika (Statsoft (Europe) GmbH, Hamburg, Germany) und Sigma Stat (Jandel Scientific, San Raphael, Calif., USA).

A short description of data set [4]: Pathological parameters: macroscopic organ inspection and kidney histo-pathology. It counts as in vivo. Conditions: rat feeding study. As for the experimental part:
Main organs are analysed macroscopically for safety reasons and to investigate the effects of the different diets on these organs (e.g. induction of […] (“fatty”) livers etc.). After organ removal, macroscopic inspections of e.g. heart, kidneys; GI tract, spleen, liver are performed.

Data set [5] is described as follows: Feeding experiment: body weight and body fat (DEXA) in rats. It is filed as in vivo, Sprague-Dawley (SD) rats. Conditions: high fat diet (34% fat), 0.1% by weight in chow, 8 weeks, male SD rats. The method, then: For the present experiments, the compound to be tested is added to the feed of the individuals. This is beneficial against enforcement because it allows a validation of the acceptance of the test compounds. The experiments are performed with negative control and are correlated to a commercial slimming product.
Cynaropicrin is tested using six weeks old, none-adult, male Sprague-Dawley (SD) rats (Charles Rivers, Sulzfeld, Germany). Cynaropicrin is mixed with the chow (ssniff Spezial-diäten GmbH, Soest, Germany) to a final concentration of 0.1% by weight and fed for 8 weeks in two different treatment regimes: • Balanced diet (standardised to 4% fat) • High fat diet (standardised to 34% fat)
Controls obtain the same diet without Cynaropicrin or other anti-obesity additives.
Body weight is studied and analysed every week, body fat and mineral bone density are analysed by DEXA (scanner, see Example 3) in week 0, in week 4 and at the last day of the study in week 8. Furthermore, the white body fat weight is determined after removal of the tissue at the end of the feeding study in week 8. For the DEXA measurements the same apparatuses and methodology are used as described in example 3.
The GE Lunar Piximus2 DEXA scanner (GE Healthcare, Munich, Germany) gives accurate information on differences in body composition in mice (see Nagy, T R and Clair, A-L. Precision and accuracy of dual-energy X-ray absorptiometry for determining in vivo body composition in mice. Obesity Res. 2000; 8:392-398; Brommage Am J Physiol Endocrinol Metab 285: E454-E459, 2003). Validation and calibration of DEXA body composition in mice; Sarah L. Johnston, Wendy L. Peacock, Lynn M. Bell, Michel Lonchampt, and John R. Speakman, Obesity Research 2005 13 (9), 1558). One scanning procedure takes up to five minutes per individual and provides data on fat mass, lean mass, bone mineral content and bone mineral density. The method is validated against Soxhlet (SOX) fat extraction in mice and a strong correlation (r 2>0.95) between fatDEXA and fatSOX is determined (published information).
As a control experiment within the high fat diet, epigallocatechin-3-gallate (EGCG, Chengdu Purification Technology Development Co. Ltd, Chengdu, China) in pure form is used as the standard for comparison of potency and differentiation as well as benchmark against competing compounds or formulations against obesity. […] EGCG is marketed as a functional food ingredient claiming an anti-obesity effect (Wolfram, S et al. Mol Nutr Food Res 2006; 50(2):176-87; Wolfram, S et al. Ann Nutr Metab 2005; 49(1):54-6, Klaus, S et al. Int J Obes 2005; 29(6):615-23; Hill, A M et al. J Am Coil Nutr. 2007; 26(4):396S-402S). The final concentration of EGCG used is 0.1%, too.

For `C=C(C)C(=O)O[C@H]1CC(=C)[C@@H]2C[C@H](O)C(=C)[C@@H]2[C@H]2OC(=O)C(=C)[C@@H]21` [aguerine B, reference compound], the “serum TG, long term” value in data set [1] is recorded as “increase”.

For the compound `C=C1C(=O)O[C@H]2[C@H]1[C@@H](OC(=O)[C@]1(C)CO1)CC(=C)[C@@H]1C[C@H](O)[C@]3(CO3)[C@H]21` [repin, reference compound], in data set [2], the antifeeding activity result is “antifeeding activity”, the larval growth entry is listed as “inhibition of larval growth” and the “lipid levels in blood” value is recorded as “no effect”.

As for `C=C(CO)C(=O)OC1CC(=C)C2CC(O)C(=C)C2C2OC(=O)C(=C)C12` (centres unmarked) [Cynaropicrin, (8-hydroxy-3,6,9-trimethylidene-2-oxo-3a,4,5,6a,7,8,9a, 9b-octahydroazuleno[4,5-b]furan-4-yl) 2-(hydroxymethyl)prop-2-enoate], the “total cholesterol:HDL/LDL ratio compared to the control group (HF only)” value in data set [3] was “improved”. Also, the “macroscopic inspection of main organs (heart, kidneys, GI tract, spleen, liver)” value in data set [4] (after organ removal) is listed as “no significant alterations”. The “histo-pathological analysis of the kidneys (morphology and function)” value in data set [4] is reported as “does not result in any observation of an adverse effect”. In data set [1], the “serum TG, long term” value is recorded as “increase”. In addition, in data set [5], the “body fat accumulation (DEXA) in comparison to the control groups” value is listed as “reduced body fat accumulation” and the “body weight accumulation in comparison to the control groups” value is “reduced body weight accumulation”.

On to `C=C1CC(O)C2C(=C)C(=O)OC2C2C(C)C(=O)CC12` (centres unmarked) [Grossheimin, 4-hydroxy-9-methyl-3,6-dimethylene-3a,4,5,6a,7,9,9a,9b-octahydroazuleno[5,4-d]furan-2,8-dione], for which, in data set [2], the “absorption of digested food constituents” value is “little decrease”, the antifeeding activity entry is “no anti-feeding”, the efficiency in digesting entry is listed as “little decrease” and the larval growth entry was “inhibition of larval growth”. The “lipid levels in blood” value in data set [2] is “no effect”.

Take “epigallocatechin-3-gallate [EGCG, reference compound]”: in data set [5], the “body fat accumulation (DEXA) in comparison to the control groups” value was “No effects” and the “body weight accumulation in comparison to the control groups” value is “No effects”.
